Test results reported in patent publication US20230034248A1, “PLANT STOMATA OPENING PROMOTING AGENT” (OAT Agrio Co., Ltd., priority 2019, published 2023).

Assays:
Assay type in all cases: cell-based
[1] = test system: lower epidermis of Commelina benghalensis L.; experiment: Stomatal opening promoting activity in a dark place (stomatal aperture of peeled lower epidermis); conditions: for Stomatal Aperture: dark place 3 hours
Method: (§1) The lower epidermis of Commelina benghalensis L. was peeled off, immersed in the stomatal aperture measurement solution, and allowed to stand still in a dark place for 2 hours. Then, the lower epidermis of Commelina benghalensis L. was immersed in test solutions prepared by adding steviol to the stomatal aperture measurement solution to give 100 or 300 μM (final concentration) or in the stomatal aperture measurement solution without the addition of steviol (Comparative Example 1), and allowed to stand still in a bright place for 3 hours. The lower epidermis of Commelina benghalensis L. after immersion in the test solutions was photographed with a digital camera (LCD (Liquid Crystal Display), manufactured by KENIS LIMITED) attached to a microscope (Olympus BH2; objective lens SPlan 10 [manufactured by Olympus Corporation] magnification 200×). The stomatal aperture was measured with measurement software (digital microanalyzer, manufactured by Nippon Polaroid Corporation; Polaroid is the registered trademark). The stomatal aperture was measured for 80 or more stomata, for each addition concentration. The stomatal aperture obtained at each addition concentration was compared with the stomatal aperture obtained without the addition of steviol (0 μM, Comparative Example 1), and statistical analysis was performed by student's t-test.
(§2) The lower epidermis of Commelina benghalensis L. that had been peeled off was immersed in the stomatal aperture measurement solution, and allowed to stand still in a dark place for 2 hours. Then, the lower epidermis of Commelina benghalensis L. was immersed in test solutions prepared by adding steviol to the stomatal aperture measurement solution to give 200 or 300 μM (final concentration) or in the stomatal aperture measurement solution without the addition of steviol (Comparative Example 4), and allowed to stand still in a dark place for 3 hours. Then, the stomatal aperture was measured as in Example 1.
as §2, with “stevioside” for “steviol”, “give 100,” for “give”, “5),” for “4),”
as §2, with “rebaudioside A” for “steviol”, “10, 100, 300,” for “200”, “500” for “300”, “6),” for “4),”
as §2, with “FARM A” for “steviol”, “a 2,000-, 1,000-,” for “200”, “500-fold dilution” for “300 μM”, “7),” for “4),”

[2] = test system: lower epidermis of Commelina benghalensis L.; experiment: Abscisic acid-induced stomatal closure inhibitory activity, first evaluation (stomatal aperture of peeled lower epidermis); conditions: for Stomatal Aperture: 2 hours
Method: as §1
The lower epidermis of Commelina benghalensis L. was peeled off, immersed in the stomatal aperture measurement solution, and allowed to stand still in a bright place for 3 hours. Then, the lower epidermis of Commelina benghalensis L. was immersed in test solutions prepared by adding 10 μM (final concentration) of abscisic acid and 400 or 600 μM of steviol to the stomatal aperture measurement solution or in the stomatal aperture measurement solution without the addition of steviol (Comparative Example 8) prepared by adding 10 μM (final concentration) of abscisic acid alone, and allowed to stand still for 2 hours. Then, the stomatal aperture was measured as in Example 1.
(§3) The lower epidermis of Commelina benghalensis L. was peeled off, immersed in the stomatal aperture measurement solution, and allowed to stand still in a bright place for 3 hours. Then, the lower epidermis of Commelina benghalensis L. was immersed in test solutions prepared by adding 10 μM (final concentration) of abscisic acid and 300 or 800 μM (final concentration) of stevioside to the stomatal aperture measurement solution or in the stomatal aperture measurement solution without the addition of stevioside (Comparative Example 9) prepared by adding 10 μm (final concentration) of abscisic acid alone, and allowed to stand still for 2 hours. Then, the stomatal aperture was measured as in Example 1.
as §3, with “100, 300,” for “300”, “500” for “800”, “rebaudioside A” for “stevioside”, “10)” for “9)”
The lower epidermis of Commelina benghalensis L. was peeled off, immersed in the stomatal aperture measurement solution, and allowed to stand still in a bright place for 3 hours. […]

[3] = test system: lower epidermis of Commelina benghalensis L.; experiment: Stomatal opening promoting activity in a bright place (stomatal aperture of peeled lower epidermis); conditions: for Stomatal Aperture: bright place 3 hours, mean±standard deviation
Method: as §1
The lower epidermis of Commelina benghalensis L. that had been peeled off was immersed in the stomatal aperture measurement solution, and allowed to stand still in a dark place for 2 hours. Then, the lower epidermis of Commelina benghalensis L. was immersed in test solutions prepared by adding FARM A to the stomatal aperture measurement solution to give a 500- or 250-fold dilution (final concentration) or in the stomatal aperture measurement solution without the addition of FARM A (Comparative Example 2), and allowed to stand still in a bright place for 3 hours. Then, the stomatal aperture was measured as in Example 1.

[4] = addition concentration 300 μM with 10 μM abscisic acid

C=C1C[C@@]23CC[C@H]4[C@@](C)(CCC[C@@]4(C)C(=O)O[C@@H]4O[C@H](CO)[C@@H](O)[C@H](O)[C@H]4O)[C@@H]2CC[C@]1(O[C@@H]1O[C@H](CO)[C@@H](O)[C@H](O[C@@H]2O[C@H](CO)[C@@H](O)[C@H](O)[C@H]2O)[C@H]1O[C@@H]1O[C@H](CO)[C@@H](O)[C@H](O)[C@H]1O)C3 [rebaudioside A]
Stomatal Aperture ([1]; addition concentration 10 μM): 8.70 ± 0.39 μm | Stomatal Aperture ([1]; addition concentration 100 μM): 9.53 ± 0.45 μm | Stomatal Aperture ([1]; addition concentration 300 μM): 11.46 ± 0.55 μm | Stomatal Aperture ([1]; addition concentration 500 μM): 9.05 ± 0.40 μm | stomatal aperture as compared to without the addition (student's t-test) ([1]; every concentration (10, 100, 300, 500 μM), dark place): statistically significant increase in the stomatal aperture | stomatal aperture as compared to without the addition (student's t-test) ([2]; 100, 300, or 500 μM with 10 μM abscisic acid): statistically significant increase in the stomatal aperture | Stomatal Aperture ([2]; addition concentration 100 μM with 10 μM abscisic acid): 7.74 ± 2.90 μm | Stomatal Aperture [2, 4]: 9.85 ± 2.57 μm | Stomatal Aperture ([2]; addition concentration 500 μM with 10 μM abscisic acid): 9.32 ± 2.69 μm

C=C1C[C@@]23CC[C@H]4[C@@](C)(CCC[C@@]4(C)C(=O)O)[C@@H]2CC[C@]1(O)C3 [steviol]
stomatal aperture as compared to without the addition (student's t-test) ([1]; 200 or 300 μM, dark place): statistically significant increase in the stomatal aperture | Stomatal Aperture ([1]; addition concentration 200 μM): 15.00 ± 0.32 μm | Stomatal Aperture ([1]; addition concentration 300 μM): 11.94 ± 0.42 μm | stomatal aperture as compared to without the addition (student's t-test) ([2]; 400 or 600 μM with 10 μM abscisic acid): statistically significant increase in the stomatal aperture | Stomatal Aperture ([2]; addition concentration 400 μM with 10 μM abscisic acid): 10.65 ± 0.48 μm | Stomatal Aperture ([2]; addition concentration 600 μM with 10 μM abscisic acid): 13.27 ± 0.49 μm | stomatal aperture as compared to without the addition (student's t-test) ([3]; 300 μM, bright place): statistically significant increase in the stomatal aperture | stomatal aperture as compared to without the addition ([3]; 100 or 300 μM, bright place): an increase in the stomatal aperture | Stomatal Aperture ([3]; addition concentration 100 μM): 15.16 ± 0.33 μm | Stomatal Aperture ([3]; addition concentration 300 μM): 16.95 ± 0.37 μm

C=C1C[C@@]23CC[C@H]4[C@@](C)(CCC[C@@]4(C)C(=O)O[C@@H]4O[C@H](CO)[C@@H](O)[C@H](O)[C@H]4O)[C@@H]2CC[C@]1(O[C@@H]1O[C@H](CO)[C@@H](O)[C@H](O)[C@H]1O[C@@H]1O[C@H](CO)[C@@H](O)[C@H](O)[C@H]1O)C3 [stevioside]
stomatal aperture as compared to without the addition ([1]; 100, 200 or 300 μM, dark place): an increase in the stomatal aperture | stomatal aperture as compared to without the addition (student's t-test) ([1]; 100 or 200 μM, dark place): statistically significant increase in the stomatal aperture | Stomatal Aperture ([1]; addition concentration 100 μM): 6.83 ± 0.23 μm | Stomatal Aperture ([1]; addition concentration 200 μM): 7.33 ± 0.31 μm | Stomatal Aperture ([1]; addition concentration 300 μM): 5.81 ± 0.20 μm | stomatal aperture as compared to without the addition (student's t-test) ([2]; 300 or 800 μM with 10 μM abscisic acid): statistically significant increase in the stomatal aperture | Stomatal Aperture [2, 4]: 7.03 ± 0.39 μm | Stomatal Aperture ([2]; addition concentration 800 μM with 10 μM abscisic acid): 6.49 ± 0.32 μm
